Measured values as given in patent US20100286285A1, “Pharmaceutical composition comprising oleaginous ointments and vitamin D or its derivatives in the solubilized state” (GALDERMA RESEARCH & DEVELOPMENT, priority 2005, published 2010).

Assay: Maximum solubility of the active agent in various excipients
Type: physicochemical

What does the source list for CCCc1cc(C(O)(CC)CC)ccc1-c1cc(OCc2ccc(CO)c(CO)c2)ccc1CC [Active agent, {4-[6-ethyl-4′-(1-ethyl-1-hydroxypropyl)-2′-propylbiphenyl-3-yloxymethyl]-2-hydroxy-methylphenyl}methanol]?
Sol max (in Arlamol E): 1.033 % w/w; Sol max (in Cremophor RH40): 3.989 % w/w; Sol max (in Ethanol 95): >20 % w/w; Sol max (in Eutanol G): 0.322 % w/w; Sol max (in IPP): 0.1654 % w/w; Sol max (in Labrafil M1944CS): 0.936 % w/w; Sol max (in Miglyol 812): 0.3167 % w/w; Sol max (in PEG 400): 6.894 % w/w; Sol max (in Primol 352): 0.0009 % w/w; Sol max (in Propylene glycol): 2.3351 % w/w; Sol max (in Sweet almond oil): 0.0932 % w/w; Sol max (in Transcutol): >20 % w/w
